Patent US8158656B2, “2-indolinone derivatives as multi-target protein kinase inhibitors and histone deacetylase inhibitors” (Shenzhen Chipscreen Biosciences Ltd., priority 2008, dated 2012)

How the values were obtained:
Flt3 = biological target: T1, Flt3 (Homo sapiens, UniProt P36888); experiment: Flt3 kinase ELISA bioassay; assay type: biochemical; conditions: ELISA kinase assay, 200 μM ATP
T1 construct: purchased Cell Signaling
T1 sequence (P36888 27-993): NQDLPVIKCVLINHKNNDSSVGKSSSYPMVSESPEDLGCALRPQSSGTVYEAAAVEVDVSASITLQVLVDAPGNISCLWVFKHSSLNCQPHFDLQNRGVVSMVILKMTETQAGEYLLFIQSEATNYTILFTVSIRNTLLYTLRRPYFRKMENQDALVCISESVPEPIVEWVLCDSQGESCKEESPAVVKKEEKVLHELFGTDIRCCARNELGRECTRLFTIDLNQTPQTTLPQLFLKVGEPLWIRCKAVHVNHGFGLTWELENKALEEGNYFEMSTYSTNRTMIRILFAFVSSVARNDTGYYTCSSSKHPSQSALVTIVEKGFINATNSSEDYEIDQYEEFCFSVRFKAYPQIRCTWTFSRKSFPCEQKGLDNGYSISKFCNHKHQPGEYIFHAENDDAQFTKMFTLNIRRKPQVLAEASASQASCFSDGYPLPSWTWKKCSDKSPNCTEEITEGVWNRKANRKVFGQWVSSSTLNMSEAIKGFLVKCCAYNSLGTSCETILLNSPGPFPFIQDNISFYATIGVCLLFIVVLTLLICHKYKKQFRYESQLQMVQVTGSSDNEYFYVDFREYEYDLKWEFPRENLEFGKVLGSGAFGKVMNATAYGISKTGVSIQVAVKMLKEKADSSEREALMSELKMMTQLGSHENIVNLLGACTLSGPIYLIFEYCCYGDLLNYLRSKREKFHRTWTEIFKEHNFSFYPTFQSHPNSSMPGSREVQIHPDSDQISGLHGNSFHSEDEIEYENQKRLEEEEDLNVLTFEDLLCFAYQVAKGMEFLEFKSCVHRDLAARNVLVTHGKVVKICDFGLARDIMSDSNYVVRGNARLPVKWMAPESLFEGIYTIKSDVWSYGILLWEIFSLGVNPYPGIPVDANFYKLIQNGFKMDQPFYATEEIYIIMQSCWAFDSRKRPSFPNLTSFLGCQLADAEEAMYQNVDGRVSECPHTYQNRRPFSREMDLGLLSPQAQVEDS
Experimental: This assay is used to measure in vitro kinase activity of Flt3 in an ELISA assay.
• 1. Streptavidin coated, 96-well, white plate • 2. Phospho-Tyrosine Monoclonal Antibody (P-Tyr-100) (Cell Signaling) • 3. HRP-labeled anti-mouse IgG (Upstate) • 4. HTScan™ Tyrosine Kinase Buffer (4×) • 5. DTT (1000×. 1.25 M) • 6. ATP (10 mM) • 7. KDR (Tyr996) Biotinylated Peptide Substrate (Cell Signaling) • 8. Flt3 Kinase (recombinant, human) (Cell Signaling) • 9. Wash Buffer: 1× PBS, 0.05% Tween-20 (PBS/T) • 10. Bovine Serum Albumin (BSA) • 11. Stop Buffer: 50 mM EDTA pH 8 • 12. Enhanced chemiluminescence (ECL) (Amersham) Procedure for performing the assay in 96-well plate: • 1. Add 10 μl 10 mM ATP to 1.25 ml 6 μM substrate peptide. Dilute the mixture with dH20 to 2.5 ml to make 2× ATP/substrate cocktail ([ATP]=[…], [substrate]=3 μm). • 2. Immediately transfer enzyme from −80° C. to ice. Allow enzyme to thaw on ice. • 3. Microcentrifuge briefly at 4° C. to bring liquid to the bottom of the vial. Return immediately to ice. • 4. Add 10 μl of DTT (1.25 M) to 2.5 ml of 4× HTScan™ Tyrosine Kinase Buffer (240 mM HEPES pH 7.5, 20 mM MgCl2, 20 mM MnCl2, 12 μM Na3VO4) to make DTT/Kinase buffer. • 5. Transfer 1.25 ml of DTT/Kinase buffer to enzyme tube to make 4× reaction cocktail ([enzyme]=4 ng/μL in 4× reaction cocktail). • 6. Incubate 12.5 μl of the 4× reaction cocktail with 12.5 μl/well of prediluted compound of interest (usually around 10 μM) for 5 minutes at room temperature. • 7. Add 25 μl of 2× ATP/substrate cocktail to 25 μl/well preincubated reaction cocktail/compound. Final Assay Conditions for a 50 μl Reaction: • 60 mM HEPES pH 7.5 • 5 mM MgCl2 • 5 mM MnCl2 • 3 μM Na3VO4 • 1.25 mM DTT • […] • 1.5 μM peptide • 10 units Flt3 Kinase • 8. Incubate reaction plate at room temperature for 30 minutes. • 9. Add 50 μl/well Stop Buffer (50 mM EDTA, pH 8) to stop the reaction. • 10. Transfer 50 μl of each reaction and 50 μl dH2O/well to a 96-well streptavidincoated plate and incubate at room temperature for 60 minutes. • 11. Wash three times with 200 μl/well PBS/T • 12. Dilute primary antibody, Phospho-Tyrosine Monoclonal Antibody (P-Tyr-100), 1:1000 in PBS/T with 1% BSA. Add 100 μl/well of primary antibody. • 13. Incubate at room temperature for 60 minutes. • 14. Wash three times with 200 μl/well PBS/T • 15. Dilute HRP labeled anti-mouse IgG 1:500 in PBS/T with 1% BSA. Add 100 μl/well diluted antibody. • 16. Incubate at room temperature for 30 minutes. • 17. Wash five times with 200 μl/well PBS/T. • 18. Add 100 μl/well ECL Solution. • 19. Detect luminescence with appropriate Plate Reader.

Jurkat = experiment: Tumor cell proliferation (MTS), Jurkat; assay type: cell-based; conditions: Homo sapiens, 72 hours
Experimental: (§1) Measurement of in vivo cell proliferation:
(§2) Tumor cells were trypsinized and plated into 96-well plates at 3,000 per well and incubated in complete medium with 10% FBS for 24 hours. Compounds were added over a final concentration range of 100 μmol/L to 100 nmol/L in 0.1% DMSO and incubated for 72 hours in complete medium. The effects on proliferation were determined by addition of MTS reagent (Promega) according to the instruction, incubation for 2 hours at 37° C. in CO2 incubator, and record the absorbance at 490 nm using an ELISA plate reader.

HL60 = experiment: Tumor cell proliferation (MTS), HL60; assay type: cell-based; conditions: Homo sapiens, HL-60, HL60, 72 hours
Experimental: as §1, §2

Hut-78 = experiment: Tumor cell proliferation (MTS), Hut-78; assay type: cell-based; conditions: Homo sapiens, HuT78, Hut-78, 72 hours
Experimental: as §1, §2

HUVEC cells = experiment: VEGF ligand-dependent cell proliferation; assay type: cell-based; conditions: Homo sapiens, VEGF 165 50 ng/ml, 72 hours, MTS
Experimental: VEGF dependent cell proliferation:
HUVEC cells were plated into 96-well plates at 6,000 per well and incubated with serum-free medium for 2 hours. Compounds and VEGF 165 (50 ng/ml) were added and incubated for 72 hours in serum-free medium. The effects on proliferation were determined by addition of MTS reagent (Promega) according to the instruction, incubation for 2 hours at 37° C. in CO2 incubator, and record the absorbance at 490 nm using an ELISA plate reader.

| SMILES | IC50 (Flt3) | GI50 (Jurkat) | GI50 (HL60) | GI50 (Hut-78) | GI50 (HUVEC cells) |
| --- | --- | --- | --- | --- | --- |
| Cc1[nH]c(/C=C2\C(=O)Nc3ccc(F)cc32)c(C)c1C(=O)NCCNc1ccc(C(=O)Nc2ccccc2N)cn1 [Example 3, (Z)-N-(2-aminophenyl)-6-(2-(2-((5-fluoro-2-oxoindolin-3-ylidene)methyl)-3,5-dimethyl-1H-pyrrole-4-carboxamido)ethylamino)nicotinamide] | 76 nM | > 60 µM | 4.15 µM | 1.77 µM | < 1 nM |
| Cc1[nH]c(/C=N/N=C2\C(=O)Nc3ccc(F)cc32)c(C)c1C(=O)NCCCNc1ccc(C(=O)Nc2ccccc2N)cn1 [Example 7, N-(2-aminophenyl)-6-(3-(2-(((5-fluoro-2-oxoindolin-3-ylidene)hydrazono)-methyl)-3,5-dimethyl-1H-pyrrole-4-carboxamido)propylamino)nicotinamide] | 451 nM | > 60 µM | 7.91 µM | > 60 µM | 387 nM |
| Cc1[nH]c(/C=N/N=C2\C(=O)Nc3ccc(F)cc32)c(C)c1C(=O)NCCCCNc1ccc(C(=O)Nc2ccccc2N)cn1 [Example 10, N-(2-aminophenyl)-6-(4-(2-(((5-fluoro-2-oxoindolin-3-ylidene)hydrazono)-methyl)-3,5-dimethyl-1H-pyrrole-4-carboxamido)butylamino)nicotinamide] | > 1000 nM | > 60 µM | 6.28 µM | > 60 µM | 568 nM |
| Cc1[nH]c(/C=N/N=C2\C(=O)Nc3ccc(F)cc32)c(C)c1C(=O)NCCNc1ccc(C(=O)Nc2ccccc2N)cn1 [Example 4, N-(2-aminophenyl)-6-(2-(2-(((5-fluoro-2-oxoindolin-3-ylidene)hydrazono)-methyl)-3,5-dimethyl-1H-pyrrole-4-carboxamido)ethylamino)nicotinamide] | 870 nM | > 60 µM | > 60 µM | > 60 µM | 1 nM |
| Cc1[nH]c(/C=C2\C(=O)Nc3ccc(F)cc32)c(C)c1C(=O)NCCCCNc1ccc(C(=O)Nc2ccccc2N)cn1 [Example 9, (Z)-N-(2-aminophenyl)-6-(4-(2-((5-fluoro-2-oxoindolin-3-ylidene)methyl)-3,5-dimethyl-1H-pyrrole-4-carboxamido)butylamino)nicotinamide] | 25 nM | > 60 µM | 1.27 µM | 1.67 µM | 12 nM |

Second part, led by results:

| IC50 (Flt3) | GI50 (Jurkat) | GI50 (HL60) | GI50 (Hut-78) | SMILES | GI50 (HUVEC cells) |
| --- | --- | --- | --- | --- | --- |
| > 1000 nM | > 60 µM | > 60 µM | > 60 µM | Cc1[nH]c(/C=N/N=C2\C(=O)Nc3ccc(F)cc32)c(C)c1C(=O)NCCCNc1ccc(C(=O)Nc2ccc(F)cc2N)cn1 [Example 17, N-(2-amino-4-fluorophenyl)-6-(3-(2-(((5-fluoro-2-oxoindolin-3-ylidene)-hydrazono)methyl)-3,5-dimethyl-1H-pyrrole-4-carboxamido)propylamino)nicotinamide] | 460 nM |
| > 1000 nM | > 60 µM | > 60 µM | > 60 µM | Cc1[nH]c(/C=N/N=C2\C(=O)Nc3ccc(F)cc32)c(C)c1C(=O)NCCCCNc1ccc(C(=O)Nc2ccc(F)cc2N)cn1 [Example 20, N-(2-amino-4-fluorophenyl)-6-(4-(2-(((5-fluoro-2-oxoindolin-3-ylidene)-hydrazono)methyl)-3,5-dimethyl-1H-pyrrole-4-carboxamido)butylamino)nicotinamide] | 330 nM |
| 21 nM | > 60 µM | > 60 µM | > 60 µM | Cc1[nH]c(/C=C2\C(=O)Nc3ccc(F)cc32)c(C)c1C(=O)NCCCCNc1ccc(C(=O)Nc2ccc(F)cc2N)cn1 [Example 19, (Z)-N-(2-amino-4-fluorophenyl)-6-(4-(2-((5-fluoro-2-oxoindolin-3-ylidene)-methyl)-3,5-dimethyl-1H-pyrrole-4-carboxamido)butylamino)nicotinamide] | 81 nM |
| 63 nM | > 60 µM | > 60 µM | > 60 µM | Cc1[nH]c(/C=C2\C(=O)Nc3ccc(F)cc32)c(C)c1C(=O)NCCNc1ccc(C(=O)Nc2ccc(F)cc2N)cn1 [Example 13, (Z)-N-(2-amino-4-fluorophenyl)-6-(2-(2-((5-fluoro-2-oxoindolin-3-ylidene)-methyl)-3,5-dimethyl-1H-pyrrole-4-carboxamido)ethylamino)nicotinamide] | 7 nM |
| 432 nM | > 60 µM | > 60 µM | > 60 µM | Cc1[nH]c(/C=N/N=C2\C(=O)Nc3ccc(F)cc32)c(C)c1C(=O)NCCNc1ccc(C(=O)Nc2ccc(F)cc2N)cn1 [Example 14, N-(2-amino-4-fluorophenyl)-6-(2-(2-(((5-fluoro-2-oxoindolin-3-ylidene)-hydrazono)methyl)-3,5-dimethyl-1H-pyrrole-4-carboxamido)ethylamino)nicotinamide] | 201 nM |
| 623 nM | > 60 µM | > 60 µM | > 60 µM | Cc1[nH]c(/C=C2\C(=O)Nc3ccc(F)cc32)c(C)c1C(=O)NCCCNc1ccc(C(=O)Nc2ccc(F)cc2N)cn1 [Example 16, (Z)-N-(2-amino-4-fluorophenyl)-6-(3-(2-((5-fluoro-2-oxoindolin-3-ylidene)-methyl)-3,5-dimethyl-1H-pyrrole-4-carboxamido)propylamino)nicotinamide] | 39 nM |
